Results taken from PubChem BioAssay (NCI).
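How tested: cells in 96-well plates exposed to compound for 48 hours at five concentrations. GI50 is the concentration that inhibits growth by half. The concentration for full growth arrest is given as TGI.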

Experiments:
Assay in all cases: NCI-60 cell line screen, 48 h
[1] = test system: KM12 colon
[2] = test system: SF-295 CNS
[3] = test system: BT-549 breast
[4] = test system: DU-145 prostate
[5] = test system: MDA-MB-468 breast
[6] = test system: NCI-H460 lung
[7] = test system: OVCAR-3 ovarian
[8] = test system: SK-MEL-2 melanoma
[9] = test system: U251 CNS
[10] = test system: SK-OV-3 ovarian
[11] = test system: CCRF-CEM leukemia
[12] = test system: SK-MEL-28 melanoma
[13] = test system: K-562 leukemia
[14] = test system: UO-31 renal
[15] = test system: COLO 205 colon
[16] = test system: SNB-19 CNS
[17] = test system: HL-60(TB) leukemia
[18] = test system: SF-539 CNS
[19] = test system: 786-0 renal
[20] = test system: MDA-MB-435
[21] = test system: A549 NSCLC
[22] = test system: HT29 colon
[23] = test system: HCT-116 colon
[24] = test system: HCT-15 colon
[25] = test system: NCI-H226 lung
[26] = test system: M14 melanoma
[27] = test system: PC-3 prostate
[28] = test system: T-47D breast
[29] = test system: HCC-2998 colon

Q: What does the source list for `COc1ccc(-c2cc(-c3cc(OC)c(OC)c(OC)c3)[nH]c(=O)c2C#N)cc1`?
A: TGI [1]: > 100 µM; GI50 [2]: 12.3 µM; TGI [2]: 32.3 µM; GI50 [3]: 16.5 µM; TGI [3]: 48 µM; GI50 [4]: 88.1 µM; TGI [4]: > 100 µM; GI50 [5]: 17.8 µM; TGI [5]: 47 µM; GI50 [6]: 12.9 µM; TGI [6]: 44.3 µM; GI50 [7]: 62.7 µM; TGI [7]: > 100 µM; GI50 [8]: 14.6 µM; TGI [8]: 30.8 µM; GI50 [9]: 4.48 µM; TGI [9]: 22.4 µM; GI50 [10]: 7.52 µM; TGI [10]: 26.7 µM; GI50 [11]: > 100 µM; TGI [11]: > 100 µM; GI50 [12]: 46 µM; TGI [12]: > 100 µM; GI50 [13]: > 100 µM; TGI [13]: > 100 µM; GI50 [14]: 3.54 µM; TGI [14]: 25.2 µM; GI50 [15]: > 100 µM; TGI [15]: > 100 µM; GI50 [16]: 6.4 µM; TGI [16]: 35.8 µM; GI50 [17]: > 100 µM; TGI [17]: > 100 µM; GI50 [18]: 5.79 µM; TGI [18]: 20.2 µM; GI50 [19]: 4.88 µM; TGI [19]: 20.1 µM; GI50 [20]: > 100 µM; TGI [20]: > 100 µM; GI50 [21]: 14 µM; TGI [21]: > 100 µM; GI50 [22]: 71.6 µM; TGI [22]: > 100 µM; GI50 [23]: 55.9 µM; TGI [23]: > 100 µM; GI50 [24]: 96.3 µM; TGI [24]: > 100 µM; GI50 [25]: 5.6 µM; TGI [25]: 24.9 µM; GI50 [26]: > 100 µM; TGI [26]: > 100 µM; GI50 [27]: 25.5 µM; TGI [27]: > 100 µM; GI50 [28]: 7.72 µM; TGI [28]: > 100 µM; GI50 [29]: > 100 µM; TGI [29]: > 100 µM
